Reference: US10786488B2, “Substituted quinolizine derivatives useful as HIV integrase inhibitors” (MERCK SHARP & DOHME CORP., priority 2017, dated 2020)

How the values were obtained:
[1] = Dog pharmacokinetic studies, oral administration to fasted Beagle dogs; format: in vivo; conditions: dose equivalent to 10 mg/kg of Compound Int-1
Description: Male Beagle Dogs (Marshall Farms) were used for the pharmacokinetic studies. Studies were conducted under a protocol approved by the WP-IACUC (Animal Procedure Statement #2018-600787-MAR). Following overnight-fasting, dogs were dosed orally with either Compound Int-1 at 10 mg/kg or one of the respective prodrugs at the dose equivalent to 10 mg/kg of Compound Int-1 formulated as a suspension in Orablend® SF. Dosing was followed by 15 mL water rinse via oral gavage. Food was returned at 4 hours after dosing. Blood (0.5-mL) was drawn at pre-dose, 0.25, 0.5, 1, 2, 4, 6, 24, 30, 48, 54 and 72 hours post-dosing into EDTA-coated collection tubes containing 25 μL of 2 mM dichlorvos solution in water. The tubes were kept chilled prior to blood collection and throughout plasma separation. The plasma was separated by centrifugation (2 minutes at 10000 g). After processing, 10 uL of 10% formic acid was added to each 200 uL of plasma. Acidified plasma samples were immediately frozen and kept at −70° C. until analysis by LC-MS/MS.
Mean [±SD] Pharmacokinetic Parameters for Compounds after Oral Administration to Fasted Beagle Dogs at Dose Equivalent to 10 mg/kg of Compound Int-1.

[2] = Stability of compounds in whole blood (dog); format: in vitro ADME; conditions: 1 μM compound, 37° C.
Description: (§1) Selected compounds of the present invention (1 μM) were incubated with whole blood (with heparin) from rat, dog and human. The samples were incubated for 0, 0.5, 1 and 2 hours in a 95% humidified incubator at 37° C. with 5% CO2. At each time point, the samples were quenched with acetonitrile containing an appropriate internal standard. The samples were then vortex-mixed and centrifuged at 2,500×g for 20 minutes. The supernatants were transferred to clean plates and analyzed using LC-MS/MS. The stability of the analyte was assessed by determining the percentage of drug loss over the course of time.

[3] = Stability of compounds in whole blood (human); format: in vitro ADME; conditions: 1 μM compound, 37° C.
Description: as §1

[4] = Stability of compounds in whole blood (rat); format: in vitro ADME; conditions: 1 μM compound, 37° C.
Description: as §1

Compound	absorption versus metabolite Compound Int-1 [1]	Remaining at 2 hours [2] [%]	Remaining at 2 hours [3] [%]	Remaining at 2 hours [4] [%]
CCOC(=O)OCOc1c2n(cc(C(=O)NCc3ccc(F)cc3F)c1=O)C[C@@H]1OCCC[C@]1(C)C2=O [Compound 4]	significant increase in absorption	–	–	–
CC(C)OC(=O)OCOc1c2n(cc(C(=O)NCc3ccc(F)cc3F)c1=O)C[C@@H]1OCCC[C@]1(C)C2=O [Compound 3]	significant increase in absorption	–	–	–
CCOC(=O)Oc1c2n(cc(C(=O)NCc3ccc(F)cc3F)c1=O)C[C@@H]1OCCC[C@]1(C)C2=O [Compound 1]	–	19	24	0
